The source of these data is paper PMC5021521, “Coordinated recruitment of Spir actin nucleators and myosin V motors to Rab11 vesicle membranes” (eLife, 2016).

Peptide text beside a SMILES is read from it. * marks the point of attachment. 5FAM = O=C1OC2(c3ccc(O)cc3Oc3cc(O)ccc32)c2ccc(C(=O)*)cc21; Ahx = NCCCCCC(=O)O

The target in test [1] is T1, MyoVb-GTD (Homo sapiens, UniProt Q9ULV0).
T1 construct: aa 1456 - 1848 (BamHI / XhoI); His6 (6xHis) with rTEV site (N, cleaved yes); made in house; host or cells: Escherichia coli BL21(DE3) or BL21-CodonPlus-RILP
T1 sequence (Q9ULV0 1456-1848): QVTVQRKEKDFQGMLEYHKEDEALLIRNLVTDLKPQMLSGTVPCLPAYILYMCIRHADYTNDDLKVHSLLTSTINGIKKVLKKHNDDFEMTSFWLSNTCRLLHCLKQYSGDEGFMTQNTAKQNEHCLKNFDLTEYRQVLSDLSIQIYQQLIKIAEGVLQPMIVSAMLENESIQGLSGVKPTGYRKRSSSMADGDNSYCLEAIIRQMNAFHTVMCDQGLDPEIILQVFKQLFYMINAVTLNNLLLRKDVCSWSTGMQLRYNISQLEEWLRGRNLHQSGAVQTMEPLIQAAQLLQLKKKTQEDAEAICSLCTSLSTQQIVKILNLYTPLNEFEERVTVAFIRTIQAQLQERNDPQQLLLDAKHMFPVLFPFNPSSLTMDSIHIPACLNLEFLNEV
Description: Fluorescence anisotropy, fluorescein-labeled Spir-2 peptide. It counts as binding. As to the method: (§1) Fluorescence anisotropy measurements were performed on a PTI Quanta-Master QM4CW spectrofluorometer (PTI, Lawrenceville, NJ, USA) at 25°C using a 10 mm wide quartz cell. Bandwidths of excitation and emission monochromators were set respectively at 5 and 15 nm. Fluorescence anisotropy, expressed in millianisotropy units, was calculated according to the equation A=IVV−GIVH/IVV+2GIVH
(§2) with A is anisotropy, G = IHV/IHH is a correction factor for wavelength-dependent distortion, and I is the fluorescence intensity component. Anisotropy values were averaged from 30 different acquisitions. The cell was charged with 1 µM of fluorescein labeled Spir-2-401-427 peptide in a final volume of 1 ml in buffer (100 mM Tris-HCl pH 8.0, 150 mM NaCl, 2 mM MgCl2, 2 mM TCEP, 5% (v/v) glycerol) and titrated with MyoVa-GTD or MyoVb-GTD (50 nM–5 µM). The binding isotherms were fitted to obtain the equilibrium dissociation constants Kd and standard errors, by using the Origin 2015 software that implements Levenberg Marquardt iterative minimization algorithms, using the equation y=F0+Fm−F0/2P(P+x+Kd−(P+x+Kd)^2−4Px)
(§3) with y represents the fluorescence anisotropy, x the concentration of MyoV-GTD, F0 the initial anisotropy, Fm the maximum anisotropy, and P the peptide concentration. Experiments were repeated twice with two different protein preparations.
A general note: In fluorescence polarisation assays a small probe gives low polarisation when free and higher when bound to something large.

In a further test the target is T2, MyoVc-GTD (Homo sapiens, UniProt Q9NQX4).
T2 construct: aa 1350 - 1742 (BamHI / XhoI); His6 (6xHis) with rTEV site (N, cleaved yes); made in house; host or cells: Escherichia coli BL21(DE3) or BL21-CodonPlus-RILP
Description: Microscale thermophoresis, fluorescein-labeled Spir-2 peptide. The following applies: human Spir-2 aa 401–427. The test is classed as binding. As to the method: MST experiments were performed on a Monolith NT.115 system (NanoTemper Technologies, München, Germany) using 5% LED and 30% IR-laser power at 21.5°C. Laser on and off times were set at 30 s and 5 s, respectively. Fluorescein labeled Spir-2 peptide was synthesized by Genscript, the peptide was dissolved in PBS with 0.005% Tween-20 and diluted to 1 μM concentration. A two-fold dilution series was prepared for the MyoVc-GTD in the interaction buffer (50 mM Tris pH 8.0, 250 mM NaCl, 2 mM MgCl2, 2 mM TCEP, 5% (v/v) glycerol) and each dilution point was transferred to the Fluorescein-Spir-2 solution. The final concentrations of MyoVc-GTD ranged from 97 μM to 2.96 nM, the final concentration of the labeled peptide was 500 nM. Samples were filled into premium capillaries (NanoTemper Technologies) for measurements. The experiments were performed with three independent replicates. The affinity was quantified by analyzing the change in normalized fluorescence as a function of the concentration of the titrated peptide using the NTAnalysis software provided by the manufacturer.

The target in test [2] is T3, MyoVa-GTD (Homo sapiens, UniProt Q9Y4I1).
T3 construct: aa 1461 - 1853 (BamHI / XhoI); His6 (6xHis) with rTEV site (N, cleaved yes); made in house; host or cells: Escherichia coli BL21(DE3) or BL21-CodonPlus-RILP
Description: Fluorescence anisotropy, fluorescein-labeled Spir-2 peptide. It counts as binding. The following applies: 1 µM peptide, MyoVa-GTD 50 nM–5 µM; 100 mM Tris-HCl pH 8.0, 150 mM NaCl, 2 mM MgCl2, 2 mM TCEP, 5% glycerol; 25°C; ± standard error; repeated twice with two protein preparations; read-out: equilibrium dissociation constant (Kd). As to the method: as §1, §2, §3

The test system of another test is HeLa cells. Put plainly: Subcellular localization by fluorescence microscopy. The test is classed as cell-based. The following applies: single expression. As to the method: (§4) HeLa cells were seeded on microscope cover glasses and transfected with Myc-epitope-tagged Spir-2 proteins and fluorescently-tagged MyoV and Rab11 proteins as described above. Cells were fixed with paraformaldehyde (3.7% in 1x PBS) for 20 min at 4°C and subsequently permeabilized using 0.2% Triton X-100 (in 1x PBS) for 3.5 min, room temperature. Cells were incubated with anti-c-Myc antibody (9E10, mouse monoclonal, 2 µg/ml, Santa Cruz Biotechnology; RRID: AB_627268) for 1 hr at room temperature and conjugated anti-mouse secondary antibodies (Cy5; from donkey, 3.25 µg/ml, Dianova (RRID: AB_2340820) and TRITC; from donkey, 3.125 µg/ml, Dianova (RRID: AB_2340767)) for 1 hr at room temperature avoiding exposure to light. Finally, cells were mounted on microscope slides with Mowiol and analyzed with a Leica AF6000LX fluorescence microscope, equipped with a Leica HCX PL APO 63x/1.3 GLYC objective and a Leica DFC350 FX digital camera (1392 × 1040 pixels, 6.45 × 6.45 µm pixel size). 3D stacks were recorded and processed with the Leica deconvolution software module. In case of the MyoVa autoregulation/activation experiments, we quantified the MyoVa expression levels. […] In order to clearly distinguish between vesicular and cytoplasmic MyoVa localization, we imaged either high or low expressing cells and determined the sum of pixel gray values per cell as a measure for the MyoVa expression levels. Based on that, we only used cells for the autoregulation analysis having a sum of pixel gray values less than 20 × 10^6 for the expression of GFP-MyoVa-D-FL. Images were recorded using the Leica LASX software and further processed with Adobe Photoshop and subsequently assembled with Adobe Illustrator.

The next test concerns GST-Rab11a-Q70L. Put plainly: GST-pulldown from HEK293 lysates. It counts as binding. The following applies: HEK293 lysates over-expressing Myc-Spir-2, Straw-FMN2-FH2-FSI and GFP-MyoVa-FL; N = 2. As to the method: HEK293 cells were co-transfected with expression vectors encoding Myc-Spir-2-FL, mStrawberry-FMN2-FH2-FSI, eGFP-MyoVa-D-FL and eGFP-MyoVa-D-Q1753R, respectively. 24 hr post transfection, cells were lysed in lysis buffer (25 mM Tris-HCl pH 7.4, 150 mM NaCl, 5 mM MgCl2, 10% (v/v) glycerol, 0.1% (v/v) Nonidet P-40, 1 mM PMSF, protease inhibitor cocktail) and centrifuged at 20,000 x g, 4°C, 20 min to remove insoluble debris. For GST-pulldown assays 65 µg GST-Rab11a-Q70L protein (25 µg GST control) was coupled to GSH-Sepharose 4B beads (1:1 suspension) for 1 hr, 4°C on a rotating wheel. Beads were washed twice with pulldown buffer (25 mM Tris-HCl pH 7.4, 150 mM NaCl, 5 mM MgCl2, 10% (v/v) glycerol, 0.1% (v/v) Nonidet P-40) and subsequently incubated with the cell lysates for 2 hr at 4°C on a rotating wheel. Beads were washed four times with pulldown buffer and bound proteins were eluted with 1x Laemmli buffer and denatured at 95°C for 10 min, then were analyzed by immunoblotting.

For another test, the system named is Myc-Spir-2. Description: Colocalization with Spir-2 on vesicular structures in HeLa cells. The test is classed as cell-based, Homo sapiens. The following applies: full-length proteins co-expressed. As to the method:
as §4, with “Cells were incubated with anti-c-Myc antibody (9E10, mouse monoclonal, 2 µg/ml, Santa Cruz Biotechnology; RRID: AB_627268) for 1 hr at room temperature and conjugated anti-mouse secondary antibodies (Cy5; from donkey, 3.25 µg/ml, Dianova (RRID: AB_2340820) and TRITC; from donkey, 3.125 µg/ml, Dianova (RRID: AB_2340767)) for 1 hr at room temperature avoiding exposure to light.” left out, “Based on that, we only used cells for the autoregulation analysis having a sum of pixel gray values less than 20 × 10^6 for the expression of GFP-MyoVa-D-FL.” left out

Test [3] has as its target T1, MyoVb-GTD. Put plainly: Surface plasmon resonance, Rab11a captured. It counts as binding. The following applies: MyoVb-GTD 10 nM–5 µM over captured Rab11a-Q70L(GTP) or Rab11-wt(GDP); 50 mM Hepes pH 7.5, 100 mM NaCl, 2 mM MgCl2, 1 mM TCEP; 25°C; steady state; mean ± SEM, N = 3; read-out: dissociation equilibrium constant (Kd). As to the method: (§5) The assays were carried out at 25°C in buffer (50 mM Hepes pH 7.5, 100 mM NaCl, 2 mM MgCl2, 1 mM TCEP). 200–250 resonance units (RU; 1RU ≈ 1 pg × mm^−2) of Rab11a-Q70L(GTP) or Rab11-wt(GDP) were captured through their His6-tag on the surface of a NTA sensorchip using a Biacore 2000 instrument (GE Healthcare Life Sciences). MyoVa-GTD or MyoVb-GTD (10 nM–5 µM) were then injected over the tethered Rabs for one minute at a flow rate of […]. The surface was regenerated with a 2-min 0.3 M EDTA incubation and a 1-min 0.1% SDS wash. The real-time interaction profiles were double referenced using the Scrubber 2.0 software (BioLogic Software, Campbell, Australia), both the signals from a reference surface (with a non-relevant protein captured on NTA) and from blank experiments using buffer instead of MyoV-GTD were subtracted. The MyoV-GTD concentration-dependence of the steady-state SPR signals was then analyzed to determine the dissociation equilibrium constants (Kd) of the different complexes using the numerical integration algorithm software Biaevaluation 4.1. Each experiment (10 point 2-fold dilution concentration series each) was repeated in triplicate, yielding mean Kd values and standard errors (SEM).

Test [4] addresses T3, MyoVa-GTD. Description: Surface plasmon resonance, Rab11a captured. The following applies: MyoVa-GTD 10 nM–5 µM over captured Rab11a-Q70L(GTP) or Rab11-wt(GDP); 50 mM Hepes pH 7.5, 100 mM NaCl, 2 mM MgCl2, 1 mM TCEP; 25°C; steady state; mean ± SEM, N = 3; read-out: dissociation equilibrium constant (Kd). The test is classed as binding. As to the method:
as §5
A general note: In SPR one partner is held on a chip, and binding of the other changes the refractive index at the surface.

T3 sequence (Q9Y4I1 1463-1855): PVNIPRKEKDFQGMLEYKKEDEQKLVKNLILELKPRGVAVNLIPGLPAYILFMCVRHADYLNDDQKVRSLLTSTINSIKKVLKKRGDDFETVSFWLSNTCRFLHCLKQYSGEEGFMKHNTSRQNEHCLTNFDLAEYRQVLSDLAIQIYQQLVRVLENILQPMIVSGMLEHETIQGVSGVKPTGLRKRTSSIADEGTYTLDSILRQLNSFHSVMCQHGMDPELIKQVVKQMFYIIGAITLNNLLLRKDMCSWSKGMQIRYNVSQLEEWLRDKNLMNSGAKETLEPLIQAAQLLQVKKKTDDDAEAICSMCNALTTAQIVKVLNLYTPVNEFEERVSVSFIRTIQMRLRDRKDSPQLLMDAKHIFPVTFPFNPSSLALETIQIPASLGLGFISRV
T2 sequence (Q9NQX4 1350-1742): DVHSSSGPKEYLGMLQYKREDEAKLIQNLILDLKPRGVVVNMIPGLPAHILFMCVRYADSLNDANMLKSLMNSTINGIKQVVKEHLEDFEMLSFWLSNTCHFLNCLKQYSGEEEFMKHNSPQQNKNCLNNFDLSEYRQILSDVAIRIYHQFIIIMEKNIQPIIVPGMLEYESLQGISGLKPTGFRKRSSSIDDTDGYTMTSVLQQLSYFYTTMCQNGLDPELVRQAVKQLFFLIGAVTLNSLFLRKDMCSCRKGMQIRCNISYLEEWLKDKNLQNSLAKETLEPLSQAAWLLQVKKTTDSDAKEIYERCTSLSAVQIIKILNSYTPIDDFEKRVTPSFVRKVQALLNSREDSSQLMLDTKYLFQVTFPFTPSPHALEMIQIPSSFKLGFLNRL

For “QRPRPRVLLKAPTLAEMEEMNTSEEEE [Spir-2-GTBM]”, the “binding affinity in words” value at MyoVb-GTD [1] (human Spir-2 aa 401–427) is “low micromolar affinity”; at MyoVc-GTD it was “micromolar range affinity”.

Broadly, the Kd is the equilibrium constant for the complex coming apart. Take `CSCC[C@H](NC(=O)[C@H](CCC(=O)O)NC(=O)[C@H](C)NC(=O)[C@H](CC(C)C)NC(=O)[C@@H](NC(=O)[C@@H]1CCCN1C(=O)[C@H](C)NC(=O)[C@H](CCCCN)NC(=O)[C@H](CC(C)C)NC(=O)[C@H](CC(C)C)NC(=O)[C@@H](NC(=O)[C@H](CCCNC(=N)N)NC(=O)[C@@H]1CCCN1C(=O)[C@H](CCCNC(=N)N)NC(=O)[C@@H]1CCCN1C(=O)[C@H](CCCNC(=N)N)NC(=O)[C@H](CCC(N)=O)NC(=O)CCCCCNC(=O)c1ccc2c(c1)C(=O)OC21c2ccc(O)cc2Oc2cc(O)ccc21)C(C)C)[C@@H](C)O)C(=O)N[C@@H](CCC(=O)O)C(=O)N[C@@H](CCC(=O)O)C(=O)N[C@@H](CCSC)C(=O)N[C@@H](CC(N)=O)C(=O)N[C@H](C(=O)N[C@@H](CO)C(=O)N[C@@H](CCC(=O)O)C(=O)N[C@@H](CCC(=O)O)C(=O)N[C@@H](CCC(=O)O)C(=O)N[C@@H](CCC(=O)O)C(=O)O)[C@@H](C)O` [Fluorescein-Spir-2-GTBM] ({5FAM-Ahx}-QRPRPRVLLKAPTLAEMEEMNTSEEEE-OH): the dissociation constant (Kd) at MyoVb-GTD [1] (1 µM peptide, MyoVb-GTD 50 nM–5 µM, 100 mM Tris-HCl pH 8.0, 150 mM NaCl, 2 mM MgCl2, 2 mM TCEP, 5% glycerol, 25°C, ± standard error, repeated twice with two protein preparations, read-out: equilibrium dissociation constant (Kd)) is 2000 ± 70 nM; on MyoVa-GTD [2], 900 ± 110 nM.

Take “GFP-MyoVa-FL: eGFP-tagged full-length MyoVa”: in the test on HeLa cells, the “subcellular localization in words” value is listed as “even cytoplasmic distribution”. The “pulldown by GST-Rab11a-Q70L in words” value in the test on GST-Rab11a-Q70L is “able to pull GFP-MyoVa-FL from cell lysates”. Besides, in the test on Myc-Spir-2, the “colocalization with Spir-2 in words” value was “perfect colocalization”.

B1: Rab11GTP: Rab11a-Q70L(GTP) captured through its His6-tag (protein, UniProt P62491 2-213, looked up, variant Q70L)
Ras-related protein Rab-11A: GTRDDEYDYLFKVVLIGDSGVGKSNLLSRFTRNEFNLESKSTIGVEFATRSIQVDGKTIKAQIWDTAGLERYRAITSAYYRGAVGALLVYDIAKHLTYENVERWLKELRDHADSNIVIMLVGNKSDLRHLRAVPTDEARAFAEKNGLSFIETSALDSTNVEAAFQTILTEIYRIVSQKQMSDRRENDMSPSNNVVPIHVPPTTENKPKVQCC
modifications: His6 tag; GTP-bound
Take B1: the Kd is 1370 ± 240 nM in the test with MyoVb-GTD [3] and 203 ± 42 nM with MyoVa-GTD [4].
